Like-named read-outs stand apart in the source and are kept apart here.
Key:
mtOXPHOS transcripts = assay type: cell-based, mouse; details: for mitoOX (composite Z-score): normalized score vs mock-treated (DMSO) wells
cytochrome c = assay type: cell-based, mouse; details: for cyt c (composite Z-score): normalized score vs mock-treated (DMSO) wells
[1] = system: cellular dehydrogenase activity; details: for MTT (composite Z-score): normalized score vs mock-treated (DMSO) wells
reactive oxygen species = assay type: cell-based, mouse; details: for ROS (composite Z-score): normalized score vs mock-treated (DMSO) wells
[2] = system: mitochondrial membrane potential; assay type: cell-based, mouse; details: for ΔΨm (composite Z-score): normalized score vs mock-treated (DMSO) wells
nuOXPHOS transcripts = assay type: cell-based, mouse; details: for nucOX (composite Z-score): normalized score vs mock-treated (DMSO) wells
OXPHOS gene expression = assay type: cell-based, mouse; details: for GE-HTS (composite Z-score): normalized score vs mock-treated (DMSO) wells
C2C12 myotubes = details: for Viability (composite Z-score): normalized score vs mock-treated (DMSO) wells
[3] = composite Z-score vs DMSO wells, Conc 20 μM
[4] = composite Z-score vs DMSO, Conc 20 μM
[5] = 20 μM, composite Z-score vs DMSO
[6] = normalized composite Z-score vs mock-treated (DMSO) wells, Conc 20 μM
[7] = 14.26 μM, composite Z-score vs DMSO
[8] = composite Z-score vs mock-treated (DMSO) wells, Conc 20 μM
[9] = 27.18 μM, composite Z-score vs DMSO

cytochrome c, sequence (P62897 whole entry): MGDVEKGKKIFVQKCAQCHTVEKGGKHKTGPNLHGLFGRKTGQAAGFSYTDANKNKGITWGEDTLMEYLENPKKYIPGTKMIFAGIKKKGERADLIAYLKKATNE

C=C1c2cccc(O)c2C(=O)C2=C(O)[C@]3(O)C(=O)C(C(N)=O)=C(O)[C@@H](N(C)C)[C@@H]3[C@@H](O)[C@H]12 [methacycline, reference compound]
mitoOX (mtOXPHOS transcripts; [3]): 0.258
cyt c (cytochrome c): 0.020
cyt c (cytochrome c; [3]): 0.723
MTT [1, 3]: −1.744
ROS (reactive oxygen species; [3]): 1.083
ΔΨm [2, 3]: −1.616
nucOX (nuOXPHOS transcripts; [3]): −0.600
GE-HTS (OXPHOS gene expression; [3]): −0.340
Viability (C2C12 myotubes; [3]): −1.645

CCc1ccc2c(O)c3c(cc2c1C(=O)OC)C(=O)c1c(O)ccc(O)c1C3=O [bisanhydrorutilantinone]
mitoOX (mtOXPHOS transcripts; [4]): −1.532
cyt c (cytochrome c; [4]): 0.148
MTT [1, 4]: −1.755
ROS (reactive oxygen species; [4]): 0.236
ΔΨm [2, 4]: −2.223
nucOX (nuOXPHOS transcripts; [4]): −0.268
GE-HTS (OXPHOS gene expression; [4]): −0.727
Viability (C2C12 myotubes; [4]): −0.493

COc1cc(OC)c2c(=O)c(-c3ccccc3)c(C)oc2c1OC [2-methyl-5,7,8-trimethoxyisoflavone]
mitoOX (mtOXPHOS transcripts; [4]): 0.081
cyt c (cytochrome c; [4]): 1.063
MTT [1, 4]: −0.531
ROS (reactive oxygen species; [4]): −0.371
ΔΨm [2, 4]: 0.306
nucOX (nuOXPHOS transcripts; [4]): 0.629
GE-HTS (OXPHOS gene expression; [4]): 0.495
Viability (C2C12 myotubes; [4]): −0.656

polymyxin b sulfate
mitoOX (mtOXPHOS transcripts; [5]): −0.341
cyt c (cytochrome c; [5]): −0.323
MTT [1, 5]: −0.522
ROS (reactive oxygen species; [5]): 0.342
ΔΨm [2, 5]: 0.738
nucOX (nuOXPHOS transcripts; [5]): −0.349
GE-HTS (OXPHOS gene expression; [5]): −0.382
Viability (C2C12 myotubes; [5]): 0.819

C[N+]1(C)CCCC(OC(=O)C(O)(c2ccccc2)c2ccccc2)C1 (centres unmarked) [mepenzolate]
mitoOX (mtOXPHOS transcripts; [3]): −0.129
cyt c (cytochrome c): 0.666
cyt c (cytochrome c; [3]): 0.855
MTT [1, 3]: −0.894
ROS (reactive oxygen species; [3]): 0.368
ΔΨm [2, 3]: 1.198
nucOX (nuOXPHOS transcripts; [3]): 0.062
GE-HTS (OXPHOS gene expression; [3]): −0.025
Viability (C2C12 myotubes; [3]): 0.333

CC12CCC(O)CC1CCc1ccccc12 (centres unmarked)
mitoOX (composite Z-score) (mtOXPHOS transcripts; Conc 20 μM): −0.717
cyt c (composite Z-score) (cytochrome c; Conc 20 μM): 0.790
MTT (composite Z-score) ([1]; Conc 20 μM): −0.574
ROS (composite Z-score) (reactive oxygen species; Conc 20 μM): 0.477
ΔΨm (composite Z-score) ([2]; Conc 20 μM): −0.339
nucOX (composite Z-score) (nuOXPHOS transcripts; Conc 20 μM): −0.023
GE-HTS (composite Z-score) (OXPHOS gene expression; Conc 20 μM): −0.250
Viability (composite Z-score) (C2C12 myotubes; Conc 20 μM): 0.056

CC1(C)S[C@@H]2[C@H](N3C(=O)[C@@H](c4ccccc4)NC3(C)C)C(=O)N2[C@H]1C(=O)O [hetacillin]
mitoOX (mtOXPHOS transcripts; [4]): −0.302
cyt c (cytochrome c; [4]): 0.731
MTT [1, 4]: −0.663
ROS (reactive oxygen species; [4]): 1.132
ΔΨm [2, 4]: −0.787
nucOX (nuOXPHOS transcripts; [4]): −0.094
GE-HTS (OXPHOS gene expression; [4]): −0.200
Viability (C2C12 myotubes; [4]): −0.642

pteryxin
mitoOX (composite Z-score) (mtOXPHOS transcripts; Conc 20 μM): −0.108
cyt c (composite Z-score) (cytochrome c; Conc 20 μM): 0.711
MTT (composite Z-score) ([1]; Conc 20 μM): −1.515
ROS (composite Z-score) (reactive oxygen species; Conc 20 μM): 1.106
ΔΨm (composite Z-score) ([2]; Conc 20 μM): 0.300
nucOX (composite Z-score) (nuOXPHOS transcripts; Conc 20 μM): −0.097
GE-HTS (composite Z-score) (OXPHOS gene expression; Conc 20 μM): −0.101
Viability (composite Z-score) (C2C12 myotubes; Conc 20 μM): −0.681

CC[C@H](C)[C@H](NC)C(=O)O [N-methylisoleucine]
mitoOX (mtOXPHOS transcripts): 0.850
cyt c (cytochrome c): −0.451
MTT [1]: 0.372
ROS (reactive oxygen species): 0.300
ΔΨm [2]: −0.210
nucOX (nuOXPHOS transcripts): 0.676
GE-HTS (OXPHOS gene expression): 0.772
Viability (C2C12 myotubes): 1.026

Cc1cc(O)c(C)c(O)c1C(=O)O [3-methylorsellinic acid]
mitoOX (mtOXPHOS transcripts; [4]): −0.108
cyt c (cytochrome c; [4]): 0.321
MTT [1, 4]: −1.253
ROS (reactive oxygen species; [4]): 0.860
ΔΨm [2, 4]: −0.030
nucOX (nuOXPHOS transcripts; [4]): −1.318
GE-HTS (OXPHOS gene expression; [4]): −1.005
Viability (C2C12 myotubes; [4]): −0.494

C=C1CCC(=O)C(C)CCC2C1CC2(C)C (centres unmarked) [dihydrocaryophyllen-5-one]
mitoOX (mtOXPHOS transcripts; [6]): −0.317
cyt c (cytochrome c; [6]): 0.620
MTT [1, 6]: −1.453
ROS (reactive oxygen species; [6]): 0.483
ΔΨm [2, 6]: 0.090
nucOX (nuOXPHOS transcripts; [6]): −0.513
GE-HTS (OXPHOS gene expression; [6]): −0.496
Viability (C2C12 myotubes; [6]): 0.219

CC(=O)O[C@H]1CC[C@]2(C)C(C[C@H](OC(C)=O)[C@]3(C)C4=CC(=O)OC(c5ccoc5)[C@@]4(C)CCC23)C1(C)C (some centres unmarked)
mitoOX (composite Z-score) (mtOXPHOS transcripts; Conc 20 μM): −0.653
cyt c (composite Z-score) (cytochrome c; Conc 20 μM): 0.161
MTT (composite Z-score) ([1]; Conc 20 μM): −0.810
ROS (composite Z-score) (reactive oxygen species; Conc 20 μM): 1.848
ΔΨm (composite Z-score) ([2]; Conc 20 μM): −0.208
nucOX (composite Z-score) (nuOXPHOS transcripts; Conc 20 μM): −1.228
GE-HTS (composite Z-score) (OXPHOS gene expression; Conc 20 μM): −1.124
Viability (composite Z-score) (C2C12 myotubes; Conc 20 μM): −0.292

CCN(CC)CCNC(=O)COc1ccc(OC)cc1 [mefexamide]
mitoOX (mtOXPHOS transcripts; [7]): 0.009
mitoOX (mtOXPHOS transcripts; [5]): −0.101
cyt c (cytochrome c; [7]): 0.129
cyt c (cytochrome c; [5]): −0.257
MTT [1, 7]: −1.363
MTT [1, 5]: −1.270
ROS (reactive oxygen species; [7]): 1.172
ROS (reactive oxygen species; [5]): 0.837
ΔΨm [2, 7]: −0.719
ΔΨm [2, 5]: −0.643
nucOX (nuOXPHOS transcripts; [7]): −0.498
nucOX (nuOXPHOS transcripts; [5]): −0.253
GE-HTS (OXPHOS gene expression; [7]): −0.340
GE-HTS (OXPHOS gene expression; [5]): −0.215
Viability (C2C12 myotubes; [7]): −0.541
Viability (C2C12 myotubes; [5]): −2.120

CC1(C)C(=O)C=C[C@]2(C)[C@H]3CC[C@@]4(C)[C@H](c5ccoc5)OC(=O)[C@H]5O[C@]54[C@]3(C)C(=O)C[C@@H]12 [deacetoxy-7-oxogedunin]
mitoOX (mtOXPHOS transcripts; [8]): −0.632
cyt c (cytochrome c; [8]): 0.047
MTT [1, 8]: −0.029
ROS (reactive oxygen species; [8]): −0.301
ΔΨm [2, 8]: 1.322
nucOX (nuOXPHOS transcripts; [8]): −0.287
GE-HTS (OXPHOS gene expression; [8]): −0.407
Viability (C2C12 myotubes; [8]): 0.089

C[N+](C)(C)CCOC(N)=O [carbachol]
mitoOX (mtOXPHOS transcripts; [5]): 0.391
mitoOX (mtOXPHOS transcripts; [9]): 0.191
cyt c (cytochrome c; [5]): −0.154
cyt c (cytochrome c; [9]): −0.202
MTT [1, 5]: −1.002
MTT [1, 9]: 0.905
ROS (reactive oxygen species; [5]): 1.304
ROS (reactive oxygen species; [9]): 1.223
ΔΨm [2, 5]: −0.965
ΔΨm [2, 9]: −0.296
nucOX (nuOXPHOS transcripts; [5]): 0.273
nucOX (nuOXPHOS transcripts; [9]): −0.176
GE-HTS (OXPHOS gene expression; [5]): 0.355
GE-HTS (OXPHOS gene expression; [9]): −0.060
Viability (C2C12 myotubes; [5]): −0.502
Viability (C2C12 myotubes; [9]): −0.239

NNC(=O)c1ccncc1.Nc1ccc(C(=O)O)c(O)c1 [pasiniazid]
mitoOX (mtOXPHOS transcripts; [4]): −0.164
cyt c (cytochrome c; [4]): 0.590
MTT [1, 4]: −0.807
ROS (reactive oxygen species; [4]): 0.502
ΔΨm [2, 4]: −0.809
nucOX (nuOXPHOS transcripts; [4]): −0.022
GE-HTS (OXPHOS gene expression; [4]): −0.059
Viability (C2C12 myotubes; [4]): −0.883

C[N+](C)(C)CCCCCC[N+](C)(C)C [hexamethonium bromide]
mitoOX (mtOXPHOS transcripts; [3]): −0.442
cyt c (cytochrome c): −0.284
cyt c (cytochrome c; [3]): 0.087
MTT [1, 3]: −1.179
ROS (reactive oxygen species; [3]): 0.176
ΔΨm [2, 3]: −0.602
nucOX (nuOXPHOS transcripts; [3]): −0.806
GE-HTS (OXPHOS gene expression; [3]): −0.735
Viability (C2C12 myotubes; [3]): −0.378

CCCCCc1c2c(cc(O)c1C(=O)O)OC(=O)c1c(cc(OC)cc1C(=O)CCCC)O2 [lobaric acid]
mitoOX (mtOXPHOS transcripts; [4]): −0.343
cyt c (cytochrome c; [4]): −0.020
MTT [1, 4]: −0.427
ROS (reactive oxygen species; [4]): 0.860
ΔΨm [2, 4]: −0.164
nucOX (nuOXPHOS transcripts; [4]): −0.499
GE-HTS (OXPHOS gene expression; [4]): −0.455
Viability (C2C12 myotubes; [4]): 0.082

OC(c1cc(C(F)(F)F)nc2c(C(F)(F)F)cccc12)C1CCCCN1 (centres unmarked) [mefloquine]
mitoOX (mtOXPHOS transcripts): 0.007
mitoOX (mtOXPHOS transcripts; [5]): −0.093
cyt c (cytochrome c): 0.498
cyt c (cytochrome c; [5]): −1.496
MTT [1]: −1.368
MTT [1, 5]: 0.374
ROS (reactive oxygen species): −0.069
ROS (reactive oxygen species; [5]): −0.983
ΔΨm [2]: −0.537
ΔΨm [2, 5]: −0.505
nucOX (nuOXPHOS transcripts): −0.073
nucOX (nuOXPHOS transcripts; [5]): 0.552
GE-HTS (OXPHOS gene expression): −0.036
GE-HTS (OXPHOS gene expression; [5]): 0.362
Viability (C2C12 myotubes): −0.183
Viability (C2C12 myotubes; [5]): 1.135
